Drawing on ChEMBL document CHEMBL1909046, “DrugMatrix in vitro pharmacology data”, this text covers IC50 and Ki for eleven compounds.

The target of one data set is T1, Leukotriene C4 synthase (Cavia porcellus, UniProt A6XA80).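 Note: enzyme inhibition assay of leukotriene C4 synthase, using LTA4 as the substrate.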
T1 sequence (A6XA80 whole entry): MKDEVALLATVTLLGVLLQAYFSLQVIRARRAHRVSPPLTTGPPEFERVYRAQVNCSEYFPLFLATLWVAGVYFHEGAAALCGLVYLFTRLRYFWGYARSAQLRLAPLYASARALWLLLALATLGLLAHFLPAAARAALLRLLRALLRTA
The class given is tissue-based, Lung.

Data set [1] concerns the target T2, Neuropeptide Y receptor type 1 (Homo sapiens, UniProt P25929).
T2 sequence (P25929 whole entry): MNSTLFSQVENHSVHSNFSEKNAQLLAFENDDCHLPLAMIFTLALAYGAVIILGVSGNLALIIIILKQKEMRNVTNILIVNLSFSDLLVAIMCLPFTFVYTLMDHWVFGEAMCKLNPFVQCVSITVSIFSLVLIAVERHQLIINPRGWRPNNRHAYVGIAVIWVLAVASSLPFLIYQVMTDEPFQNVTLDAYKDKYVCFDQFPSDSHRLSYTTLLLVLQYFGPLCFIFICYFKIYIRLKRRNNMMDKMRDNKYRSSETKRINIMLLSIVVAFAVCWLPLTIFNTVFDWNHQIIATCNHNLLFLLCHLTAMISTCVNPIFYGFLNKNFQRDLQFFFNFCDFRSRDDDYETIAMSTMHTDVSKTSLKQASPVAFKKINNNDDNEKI
It counts as cell membranes, Membrane. To be noted: sk-n-mc.

The target in a further data set is T3, Endothelin-1 receptor (Homo sapiens, UniProt P25101).
T3 sequence (P25101 whole entry): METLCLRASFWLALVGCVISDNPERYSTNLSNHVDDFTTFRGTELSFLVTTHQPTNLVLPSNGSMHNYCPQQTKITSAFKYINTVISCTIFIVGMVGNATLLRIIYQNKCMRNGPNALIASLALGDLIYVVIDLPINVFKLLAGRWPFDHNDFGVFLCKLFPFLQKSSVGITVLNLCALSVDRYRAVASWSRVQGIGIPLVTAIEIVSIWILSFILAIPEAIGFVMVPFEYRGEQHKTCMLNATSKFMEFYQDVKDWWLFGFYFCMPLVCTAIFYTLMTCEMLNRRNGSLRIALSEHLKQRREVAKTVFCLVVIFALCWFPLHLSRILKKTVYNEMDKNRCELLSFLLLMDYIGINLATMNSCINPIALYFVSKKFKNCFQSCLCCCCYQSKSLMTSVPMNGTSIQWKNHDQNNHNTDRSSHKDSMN
The class given is cell membranes, Membrane. To be noted: cho-k1.

The next data set has as its target T4, Caspase-1 (Homo sapiens, UniProt P29466).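 Note: Caspase-1 enzyme inhibition assay with a peptide substrate.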
T4 sequence (P29466 whole entry): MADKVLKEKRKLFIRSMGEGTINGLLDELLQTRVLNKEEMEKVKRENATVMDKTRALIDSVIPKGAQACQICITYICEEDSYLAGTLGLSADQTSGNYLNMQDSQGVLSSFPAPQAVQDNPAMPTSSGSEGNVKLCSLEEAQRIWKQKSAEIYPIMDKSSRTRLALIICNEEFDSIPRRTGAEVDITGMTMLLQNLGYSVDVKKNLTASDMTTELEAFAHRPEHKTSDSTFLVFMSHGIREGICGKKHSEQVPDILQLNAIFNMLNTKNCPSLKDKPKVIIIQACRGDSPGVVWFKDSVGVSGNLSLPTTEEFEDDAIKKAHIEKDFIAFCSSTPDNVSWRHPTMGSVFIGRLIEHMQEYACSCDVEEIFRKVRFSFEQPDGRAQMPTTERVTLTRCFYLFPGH
Details: species or system Escherichia coli.

The target in data set [2] is T5, Muscarinic acetylcholine receptor M2 (Homo sapiens, UniProt P08172).
T5 sequence (P08172 whole entry): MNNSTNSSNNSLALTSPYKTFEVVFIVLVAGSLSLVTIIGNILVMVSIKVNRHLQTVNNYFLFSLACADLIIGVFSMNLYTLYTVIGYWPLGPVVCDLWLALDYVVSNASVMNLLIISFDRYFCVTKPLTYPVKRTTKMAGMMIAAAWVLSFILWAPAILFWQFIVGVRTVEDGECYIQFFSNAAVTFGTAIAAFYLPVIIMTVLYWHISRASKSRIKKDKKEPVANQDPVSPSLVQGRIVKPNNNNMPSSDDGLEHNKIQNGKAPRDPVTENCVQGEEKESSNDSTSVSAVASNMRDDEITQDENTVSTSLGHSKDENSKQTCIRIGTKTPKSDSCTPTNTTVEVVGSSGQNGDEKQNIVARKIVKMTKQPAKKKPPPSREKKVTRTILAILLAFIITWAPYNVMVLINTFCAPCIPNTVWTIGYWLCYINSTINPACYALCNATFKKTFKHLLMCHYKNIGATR
It counts as cell membranes, CHO-K1, Membrane.

The target of another data set is Glycine receptor (Rattus norvegicus, UniProt P22771+P24524+P07727+P20781). The class given is cell membranes, Wistar, Spinal cord, Membrane.
In data set [3] the target is 5-hydroxytryptamine receptor 6 (Homo sapiens, UniProt P50406). The class given is cell membranes, HeLa, Membrane. To be noted: for Ki: read-out: Ki.
Sequence of 5-hydroxytryptamine receptor 6 (P50406 whole entry): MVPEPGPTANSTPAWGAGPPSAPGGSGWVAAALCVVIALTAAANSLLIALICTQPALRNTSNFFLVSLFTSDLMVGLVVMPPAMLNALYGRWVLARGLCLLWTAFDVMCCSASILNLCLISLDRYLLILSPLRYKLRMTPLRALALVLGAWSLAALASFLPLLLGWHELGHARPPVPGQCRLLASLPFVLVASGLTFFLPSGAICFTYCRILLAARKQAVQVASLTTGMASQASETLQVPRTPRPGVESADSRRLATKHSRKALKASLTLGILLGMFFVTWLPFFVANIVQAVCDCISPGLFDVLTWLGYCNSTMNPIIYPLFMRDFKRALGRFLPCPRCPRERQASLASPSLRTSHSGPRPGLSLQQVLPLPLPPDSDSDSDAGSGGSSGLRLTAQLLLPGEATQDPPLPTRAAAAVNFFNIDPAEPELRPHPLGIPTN
Another data set addresses Cytochrome P450 2C19 (Homo sapiens, UniProt P33261). The settings on record: bti-tn-5b1-4.

In general, IC50 refers to the concentration that gives 50% inhibition. In general, Ki refers to the equilibrium dissociation constant of an inhibitor or competing ligand from its target.
Note: in other assays of this panel Not Active means under 50% inhibition at 10 µM.

Sequence of Cytochrome P450 2C19 (P33261 whole entry): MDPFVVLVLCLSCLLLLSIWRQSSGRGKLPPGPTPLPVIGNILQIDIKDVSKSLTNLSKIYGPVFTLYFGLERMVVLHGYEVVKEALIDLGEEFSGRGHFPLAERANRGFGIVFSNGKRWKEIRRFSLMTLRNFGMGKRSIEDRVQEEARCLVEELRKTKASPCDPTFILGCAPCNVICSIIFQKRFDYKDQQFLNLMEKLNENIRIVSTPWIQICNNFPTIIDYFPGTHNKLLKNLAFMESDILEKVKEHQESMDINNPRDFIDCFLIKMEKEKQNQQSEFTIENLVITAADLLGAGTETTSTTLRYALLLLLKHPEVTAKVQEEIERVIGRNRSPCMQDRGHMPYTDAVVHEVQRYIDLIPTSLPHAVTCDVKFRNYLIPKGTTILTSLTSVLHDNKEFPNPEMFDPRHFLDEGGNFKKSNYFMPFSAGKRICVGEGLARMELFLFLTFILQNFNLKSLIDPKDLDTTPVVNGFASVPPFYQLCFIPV

Turning to `COc1ccc(CCN(C)CCCC(C#N)(c2ccc(OC)c(OC)c2)C(C)C)cc1OC` (configuration not stated), the IC50 entry (against Leukotriene C4 synthase; in data set [1]; against Endothelin-1 receptor; against Caspase-1; in data set [2] (cho-k1); on Glycine receptor) was “Not Active” each time. The IC50 result (in data set [3] (hela); at Cytochrome P450 2C19) was “Not Active” throughout. Moreover, on Cytochrome P450 2C19, the Ki result was “Not Active”.
Take `CCN(CC)CCOc1ccc(/C(=C(/Cl)c2ccccc2)c2ccccc2)cc1` [ENCLOMIPHENE]: the IC50 result was “Not Active” against Leukotriene C4 synthase; “Not Active” in data set [1]; “Not Active” against Endothelin-1 receptor; “Not Active” on Caspase-1; “Not Active” on Glycine receptor; 1520 nM in data set [3] (read-out: IC50). Also, the IC50 entry against Cytochrome P450 2C19 is “Not Active”. Besides, the inhibition constant Ki in data set [3] was 707 nM; at Cytochrome P450 2C19 it was “Not Active”.
On to `CN[C@H]1CC[C@@H](c2ccc(Cl)c(Cl)c2)c2ccccc21` [SERTRALINE], for which the IC50 entry was “Not Active” against Leukotriene C4 synthase; “Not Active” in data set [1]; “Not Active” against Endothelin-1 receptor; “Not Active” against Caspase-1; 2770 nM in data set [2] (read-out: IC50); “Not Active” against Glycine receptor. Besides, in data set [3] (hela), the 50% inhibitory concentration (IC50) result is “Not Active”. Also, in data set [2] (read-out: Ki), the Ki stood at 984 nM.
`CCN(CC)CC(=O)Nc1c(C)cccc1C` [LIDOCAINE]: the IC50 result (against Leukotriene C4 synthase; in data set [1]; on Endothelin-1 receptor; at Caspase-1; in data set [2] (cho-k1); against Glycine receptor) was “Not Active” throughout. The IC50 entry in data set [3] (hela) is listed as “Not Active”.
Take `CN(C)CCOC(c1ccccc1)c1ccccc1` [DIPHENHYDRAMINE]: the concentration for half-maximal inhibition (IC50) entry (at Leukotriene C4 synthase; in data set [1]; at Endothelin-1 receptor; on Caspase-1; against Glycine receptor; in data set [3] (hela)) was “Not Active” in each case.
`CCCCNc1ccc(C(=O)OCCN(C)C)cc1` [TETRACAINE]: the concentration for half-maximal inhibition (IC50) entry (against Leukotriene C4 synthase; in data set [1]; on Endothelin-1 receptor; on Caspase-1; in data set [2] (cho-k1); against Glycine receptor) was “Not Active” each time. Further, the IC50 entry in data set [3] (hela) is “Not Active”.
For `Cc1c(C)c2c(c(C)c1O)CCC(C)(CN1CCN(c3cc(N4CCCC4)nc(N4CCCC4)n3)CC1)O2` (configuration not stated), the IC50 result (on Leukotriene C4 synthase; in data set [1]; at Endothelin-1 receptor; against Caspase-1; in data set [2] (cho-k1); at Glycine receptor) was “Not Active” throughout. Besides, the concentration for half-maximal inhibition (IC50) result in data set [3] (hela) is “Not Active”.
On to `Clc1ccccc1CN1CCc2sccc2C1` [TICLOPIDINE], for which the concentration for half-maximal inhibition (IC50) result (at Leukotriene C4 synthase; in data set [1]; at Endothelin-1 receptor; on Caspase-1; in data set [2] (cho-k1); against Glycine receptor) was “Not Active” in each case. The IC50 result in data set [3] (hela) is recorded as “Not Active”.
As for `CNCCC(Oc1ccc(C(F)(F)F)cc1)c1ccccc1` (configuration not stated) [FLUOXETINE], the half-inhibitory concentration (IC50) entry (on Leukotriene C4 synthase; in data set [1]; at Endothelin-1 receptor; on Caspase-1; in data set [2] (cho-k1); on Glycine receptor) was “Not Active” in each case. Besides, the IC50 entry against Cytochrome P450 2C19 is recorded as “Not Active”. In addition, at Cytochrome P450 2C19, the Ki result is listed as “Not Active”.
For the compound `Clc1ccc(COC(Cn2ccnc2)c2ccc(Cl)cc2Cl)cc1` (configuration not stated) [ECONAZOLE], the 50% inhibitory concentration (IC50) result at Leukotriene C4 synthase is “Not Active”; in data set [1], “Not Active”; against Endothelin-1 receptor, “Not Active”; against Caspase-1 it was “Not Active”; on Glycine receptor it was “Not Active”; in data set [3] (read-out: IC50), 10900 nM. Besides, the Ki in data set [3] was 5060 nM.
Regarding `C[C@H]1C[C@@H]2[C@H]([C@@H](O)C[C@@]3(C)[C@H]2CC[C@]3(O)C(=O)CO)[C@@]2(C)C=CC(=O)C=C12` [METHYLPREDNISOLONE], the 50% inhibitory concentration (IC50) entry (at Leukotriene C4 synthase; in data set [1]; on Endothelin-1 receptor; against Caspase-1; in data set [2] (cho-k1); at Glycine receptor) was “Not Active” in each case. In data set [3] (hela), the concentration for half-maximal inhibition (IC50) entry is “Not Active”.
